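Where inhibition never reached the appropriate level, the endpoint shown equals the highest concentration tested. Otherwise, values were interpolated linearly from a five-concentration, 48-hour dose response in 96-well plates. TGI denotes the concentration required for complete inhibition of growth.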
Experiments:
Test in all cases: NCI tumour cell line growth inhibition, 48 h
[1] = test system: M19-MEL melanoma
[2] = test system: HOP-18 NSCLC
[3] = test system: SNB-78 CNS
[4] = test system: DMS 114 small cell lung
[5] = test system: LXFL 529 NSCLC
[6] = test system: KM20L2 colon
[7] = test system: XF 498 CNS
[8] = test system: RXF-631 renal

Structure (SMILES)	TGI [1] [µM]	TGI [2] [µM]	TGI [3] [µM]	TGI [4] [µM]	TGI [5] [µM]	TGI [6] [µM]	TGI [7] [µM]	TGI [8] [µM]
CC(=O)Nc1ccc(C(=O)N2N=C(C)/C(=C/c3cccc([N+](=O)[O-])c3)C2=O)cc1	> 100	> 100	> 100	> 100				
C=CCC1(CC)C(=O)NC(=O)NC1=O	> 100		> 100		> 100	> 100		
COC(=O)C1=C(C)N(NC(=O)c2ccccc2)C2(O)CCCC(=O)C12C (stereo unspecified)			> 100	> 100	> 100	> 100	> 100	> 100
CC(=O)Nc1ccc(C(=O)NN2C(=O)C(Cl)C2c2ccc(O)cc2)cc1 (stereo unspecified)	> 100		> 100		> 100	> 100	> 100	
CN(/N=N/c1nc[nH]c1C(N)=O)C1CCCCC1	> 100		> 100	> 100	> 100	> 100	> 100	
C#CCSc1nc(N)c2ncn(C3OC(COP(=O)(O)O)C(O)C3O)c2n1 (stereo unspecified)	> 239	> 239	> 239			> 239	> 239	
C/C(=C\Cc1cc(O)ccc1O)CCc1c(C)c(O)c(O)c(C=O)c1C	38.8	59.9		34	32.4	> 100	48.8	
